According to ChEMBL document CHEMBL1132238, “A peptide agonist acts by occupation of a monomeric G protein-coupled receptor: dual sites of covalent attachment to domains near TM1 and TM7 of the same molecule make biologically significant domain-swapped dimerization unlikely” (J Med Chem, 1999):

These molecules were tested against T1, Cholecystokinin receptor (Homo sapiens, UniProt P32239+P32238) (assay: Ability to stimulate intracellular calcium response was determined using CCK receptor-bearing chinese hamster ovary cell line).
T1 sequence (P32239 whole entry): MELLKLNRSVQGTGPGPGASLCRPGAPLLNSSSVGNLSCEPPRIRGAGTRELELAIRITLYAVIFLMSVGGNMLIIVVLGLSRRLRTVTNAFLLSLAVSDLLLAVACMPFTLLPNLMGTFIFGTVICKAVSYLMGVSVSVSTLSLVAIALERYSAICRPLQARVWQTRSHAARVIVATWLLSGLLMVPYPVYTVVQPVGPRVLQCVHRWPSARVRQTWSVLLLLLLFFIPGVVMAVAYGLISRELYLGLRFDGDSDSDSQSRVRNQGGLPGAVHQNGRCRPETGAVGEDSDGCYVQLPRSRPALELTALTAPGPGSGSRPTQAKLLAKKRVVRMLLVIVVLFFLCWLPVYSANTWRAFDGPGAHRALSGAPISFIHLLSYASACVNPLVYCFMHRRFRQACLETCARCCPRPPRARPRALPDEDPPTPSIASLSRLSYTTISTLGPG
T1 sequence (P32238 whole entry): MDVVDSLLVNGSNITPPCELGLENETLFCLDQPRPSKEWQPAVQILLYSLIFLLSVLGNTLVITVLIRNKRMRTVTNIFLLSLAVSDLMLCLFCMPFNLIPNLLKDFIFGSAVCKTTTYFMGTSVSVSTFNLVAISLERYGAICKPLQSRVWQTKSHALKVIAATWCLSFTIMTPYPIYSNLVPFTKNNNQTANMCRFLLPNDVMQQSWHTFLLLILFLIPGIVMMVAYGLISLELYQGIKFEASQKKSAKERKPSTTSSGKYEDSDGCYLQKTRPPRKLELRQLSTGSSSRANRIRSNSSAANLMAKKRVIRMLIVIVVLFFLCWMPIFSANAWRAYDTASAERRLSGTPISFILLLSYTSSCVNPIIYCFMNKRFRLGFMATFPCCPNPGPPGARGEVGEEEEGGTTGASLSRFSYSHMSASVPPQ
Format: functional, cell-based, Cricetulus griseus

EC50 | SMILES
28 nM | CCCC[C@H](NC(=O)[C@H](Cc1c[nH]c2ccccc12)NC(=O)[C@H](Cc1ccc(C(=O)c2ccccc2)cc1)NC(=O)[C@H](CCCC)NC(=O)[C@H](Cc1ccc(OS(=O)(=O)O)cc1)NC(=O)[C@H](CC(=O)O)NC(=O)CNC(=O)[C@H](N)Cc1ccc(O)cc1)C(=O)N[C@@H](CC(=O)O)C(=O)N[C@@H](Cc1ccccc1)C(N)=O
280 nM | CCCC[C@H](NC(=O)[C@H](Cc1ccc(OS(=O)(=O)O)cc1)NC(=O)[C@H](CC(=O)O)NC(=O)CNC(=O)[C@H](N)Cc1ccc(O)cc1)C(=O)NCC(=O)N[C@@H](Cc1c[nH]c2ccccc12)C(=O)N[C@@H](CCCC)C(=O)N[C@@H](CC(=O)O)C(=O)N[C@@H](Cc1ccc(C(=O)c2ccccc2)cc1)C(N)=O
150 nM | CCCC[C@H](NC(=O)[C@H](Cc1c[nH]c2ccccc12)NC(=O)[C@H](Cc1ccc(C(=O)c2ccccc2)cc1)NC(=O)[C@H](CCCC)NC(=O)[C@H](Cc1ccc(OS(=O)(=O)O)cc1)NC(=O)[C@H](CC(=O)O)NC(=O)CNC(=O)[C@H](N)Cc1ccc(O)cc1)C(=O)N[C@@H](CC(=O)O)C(=O)N[C@@H](Cc1ccc(C(=O)c2ccccc2)cc1)C(N)=O
